Laboratory results from publication PMC6911004, “Fragment-based screening identifies molecules targeting the substrate-binding ankyrin repeat domains of tankyrase” (Scientific Reports, 2019).

What was measured:
Format in all cases: binding
TNKS2 ARC5 [1] = molecular target: T1, TNKS2 ARC5 (Homo sapiens, UniProt Q9H2K2); assay: T2 relaxation-edited ligand-observed NMR assay; details: DSF hit validation
T1 construct: followed by TNKS2 ARC5 (1 μL, 100 μM stock); His6-GST; made in house; host or cells: E. coli
T1 sequence (Q9H2K2 641-800): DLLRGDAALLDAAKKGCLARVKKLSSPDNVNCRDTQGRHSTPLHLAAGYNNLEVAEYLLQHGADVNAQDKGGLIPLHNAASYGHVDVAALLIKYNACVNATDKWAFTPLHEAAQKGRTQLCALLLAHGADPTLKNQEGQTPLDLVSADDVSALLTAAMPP
Description: (§1) 39 hits from the DSF screen were suitable for follow-up by ligand-observed NMR methods. We re-purchased fragments and performed T2 relaxation-edited (CPMG-edited) and waterLOGSY experiments for each fragment with TNKS2 ARC5. We explored saturation transfer difference (STD) NMR, also using TNKS2 ARC5, but the assay was not sensitive enough to produce a reliable binding signal, likely due to the relatively small size of a single ARC protein (data not shown). High ligand concentrations were required to achieve sufficient signal, which in turn could lead to false-positive hits due to non-specific binding.
Using the relaxation-edited assay, we tested each fragment in three independent measurements (Fig. 2C), unless we obtained two negative results (non-binding) in the first two experiments. […] As a negative NOE for the compound-only sample could indicate aggregation, we flagged these compounds as potentially problematic. We identified 14 fragments that bound to TNKS2 ARC5 by both relaxation-edited and waterLOGSY methods (0.78% hit rate). We next tested whether binding of these fragments occurred competitively with the 3BP2 TBM peptide, and also if they bound to TNKS2 ARC4, as competition with peptide binders at various different ARCs will be a prerequisite for an efficient substrate binding antagonist. Three fragments (1, 2, 3) bound to both TNKS2 ARC4 and ARC5 and were competitive with the TBM peptide (0.16% hit rate) (Fig. 2E). Three further fragments also bound to both ARCs, but were not TBM competitive by NMR.
Fragments were dispensed in duplicate into a 384-well plate (250 nL, 100 mM stock in DMSO). Wells were backfilled with DMSO (2.25 μL). Tankyrase ARC protein (47.5 μL in 25 mM HEPES, pH 7.5, 100 mM NaCl, 2 mM TCEP, 10% D2O; 20 μM final protein concentration in the assay) was added to the ‘protein’ samples; buffer only (47.5 μL) was added to the ‘compound-only’ samples. Solutions were transferred to 1.7 mm NMR tubes using a Gilson liquid handling system. ^1H NMR spectra were recorded, with the DMSO and water signals dampened. A relaxation spin filter was applied at 400 ms[65]. Data were processed using Bruker Topspin 3.14. Lines were broadened with LB = 3.0, and the baseline was corrected between 6.0–10.0 ppm. The average integral for all peaks between 6.0–10.0 ppm was calculated, and the difference between compound-only and compound-plus-protein samples was compared. A reduction in signal integrals of ≥15% was classified as a hit. For competitive experiments, 3BP2 16-mer peptide (100 μM) was added, and the spectra were recorded and processed as above. The variability in signal reduction in the relaxation-edited experiment was previously determined as approximately ± 10% (Liu et al., unpublished observations).

TNKS2 ARC4 (488–649) = molecular target: T2, TNKS2 ARC4 (488–649) (Homo sapiens, UniProt Q9H2K2); assay: Isothermal titration calorimetry (ITC); details: global analysis n = 5
T2 construct: The cell was filled with TNKS2 ARC4 (488–649); His6-GST (cleaved yes); made in house; host or cells: E. coli BL21-CodonPlus (DE3)-RIL
T2 sequence (Q9H2K2 488-649): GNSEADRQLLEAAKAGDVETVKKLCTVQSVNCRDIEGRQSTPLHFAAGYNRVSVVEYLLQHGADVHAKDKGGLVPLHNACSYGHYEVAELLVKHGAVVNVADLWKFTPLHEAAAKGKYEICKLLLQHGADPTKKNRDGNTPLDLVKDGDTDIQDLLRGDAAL
Protocol: We next used isothermal titration calorimetry (ITC) to confirm the compound 9:TNKS2 ARC4 binding affinity, titrating the fragment (5 mM, 1% DMSO) into TNKS2 ARC4 (200 μM, 1% DMSO).
An ITC200 instrument (MicroCal) was used, fitted with a twisted syringe needle, stirring at 750 rpm. All solutions were degassed using a ThermoVac before use. The reference cell was filled with buffer (200 μL, 25 mM HEPES-NaOH pH 7.5, 100 mM NaCl, 1 mM TCEP, 1% v/v DMSO). The cell was filled with TNKS2 ARC4 (488–649) (200 μL, 200 μM in identical buffer as above). 20 injections (1 × 0.5 μL, then 19 × 2 μL) of compound 9 (5 mM, 1% v/v DMSO in buffer) were performed, with 180 s between injections. Blank correction was performed by titrating compound into buffer alone (25 mM HEPES-NaOH pH 7.5, 100 mM NaCl, 1 mM TCEP, 1% v/v DMSO) using the same injection protocol as above. The first injections from each run were discarded from data analysis. Data were analysed using Origin software with a one-site binding model. Titrations were repeated n = 5. Global analysis was performed using SEDPHAT software.

TNKS2 ARC5 [2] = molecular target: T1, TNKS2 ARC5; assay: WaterLOGSY NMR assay
Description: as §1
Using the relaxation-edited assay, we tested each fragment in three independent measurements (Fig. 2C), unless we obtained two negative results (non-binding) in the first two experiments. […] As a negative NOE for the compound-only sample could indicate aggregation, we flagged these compounds as potentially problematic. We identified 14 fragments that bound to TNKS2 ARC5 by both relaxation-edited and waterLOGSY methods (0.78% hit rate). […]
Fragments were dispensed in duplicate into a 384-well plate (250 nL, 100 mM stock in DMSO). […] Solutions were transferred to 1.7 mm NMR tubes using a Gilson liquid handling system. ^1H NMR spectra were recorded, with the DMSO signal dampened. […]

Row | binding to TNKS2 ARC5 by ligand-observed NMR, in words (TNKS2 ARC5 [1]; relaxation-edited and waterLOGSY) | competition with the 3BP2 TBM peptide by relaxation-edited NMR (TNKS2 ARC5 [1]; ARC used for competition not given) | Kd (TNKS2 ARC4 (488–649); compound 5 mM into ARC4 200 μM, 1% DMSO) [µM] | ITC stoichiometry (N) compound:TNKS2 ARC4 (TNKS2 ARC4 (488–649)) | Compound | waterLOGSY (TNKS2 ARC5 [2])
1 | bound | competitive | – | – | O=C(NCc1ccco1)c1ccc(F)cc1 [compound 3] | –
2 | – | – | 1200 | 1.1 | O=C(NCc1ccco1)c1ccc2nccnc2c1 [compound 9] | negative NOE signal
